# Patent US12492232B2, “Methods for producing proteins” (South Australian Health and Medical Research Institute …, priority 2018, dated 2025)
# “Also recorded” adds a separate entry of the source.
# Legend:
# Assay type in all cases: cell-based
# CHO cells = assay: Growth of transfected CHO cells in medium with 10%, 1%, 0.5% or 0% FBS (cell counts over 7 days)
# Description: CHO cells were seeded into 24-well plates at 5,000 cells/well. […] 24 h after transfection, cells were transferred to medium containing 10%, 1%, 0.5% or 0% FBS as indicated. Every 24 h for 7 days, cells were trypsinized (from different dishes on each occasion) and counted on a haemocytometer. Growth medium was changed every 2 days.
# CHO cells were seeded into 24-well plates at 5,000 cells/well. […] 24 h after transfection, cells were transferred to media (Ham's F12 from Life Technologies, Cat. No. 11765054) containing 10%, 1%, 0.5% or 0% foetal bovine serum, as indicated. Cells were trypsinized and counted on a haemocytometer every 24 h for 7 days. Growth medium was changed every 2 days.
# [1] = system: CHO cells stably expressing Gaussia luciferase (GLuc); assay: Secreted Gaussia luciferase assay in CHO cells stably expressing GLuc transfected with Rheb vectors
# Description: CHO cells stably expressing Firefly luciferase (FLuc) or Gaussia luciferase (GLuc) as indicated were transfected using Lipofectamine3000 with an empty vector (EV) or vectors for Rheb WT, S21L, T23M, G29S, Y35N or E40K and also treated with the mTOR inhibitor AZD8055 at 100 nM for the total duration where indicated. Fluc and GLuc assays were performed 24 h after transfection and then every 48 h for 7 days. Assay results are normalised to cell number. GLuc-CHO cells were harvested for SDS-PAGE and Western Blot analysis at the 168 h (7-day) time-point to probe for intracellular GLuc, FLAG (Rheb) and actin, as ‘loading control’. […] However, Rheb-T23M and —Y35N caused a significant 3-fold increase in secreted Gaussia luciferase that was also seen with E40K and was prevented by treatment with AZD8055 (C/D [histogram of day 7]). In (E), secreted GLuc was monitored every 4 h from 24 h to 60 h showing the rate of secretion of GLuc was higher when Rheb-T23M is expressed as compared to Rheb-Y35N. The pattern for intracellular levels of Gaussia luciferase (assessed by immunoblot of cell lysates harvested at 7 days post transfection) more closely resemble those intracellular firefly luciferase (F) with little change compared to either the empty vector or WT while still retaining heightened mTORC1 signalling as indicated by the elevated levels of P-S6K1 Thr389 compared to cells transfected with the empty vector. CHO cells expressing Rheb-T23M, Y35N and E40K show a small increases in general protein synthesis but a marked increase in secreted Gaussia protein that is blocked by mTOR inhibition. Thus, Rheb[T23M] selectively promotes production of the secreted protein GLuc in a process that requires mTOR signalling.
# Constructs were introduced into CHO cells using Lipofectamine3000 (Life Technologies) according to the manufacturer's protocol. Cell lines stably expressing secreted luciferase were generated by cloning the GLuc gene with a signal sequence from Nanolight Technology (see paper sent with this version) and cloning this into the pcDNA4 commercially available vector where gene expression was driven by a CMV promoter. The subsequent vectors were transfected, using lipofectamine, into CHO-S freestyle suspension cells and grown in CD-CHO media and then stable transfectant pools selected by addition of zeocin antibiotic. Once stable pools had emerged these were subjected to limited dilution cloning to obtain a range of pools with different secreted GLuc expression levels. Methods as are described, for example, in Josse et al. (2009) Biotechnology and Bioengineering 105: 556-566.
# For Gaussia luciferase, we employed the BioLux® Gaussia Luciferase Assay Kit (New England Biolabs (NEB), Cat. No. E3300S) and for firefly luciferase the Luciferase Assay System from Promega (Cat. No. E1500). Cells were grown in Ham's F12 medium F12 nutrient mix, Ham's (Life Technologies, Cat. No. 11765054).
# CHO cells stably expressing Firefly luciferase (FLuc; which is cytoplasmic) or Gaussia luciferase (GLuc; which is secreted) as indicated were transfected using Lipofectamine3000 with an empty vector (EV) or vectors for Rheb WT, S21L, T23M, G29S, Y35N or E40K and treated with the mTOR inhibitor AZD8055 at 100 nM for the total duration where appropriate. Fluc and GLuc assays were performed at 24 h after transfection and then every 48 h for 7 days. Assay results were normalised to cell number. […]
# [2] = system: mTORC1 localisation at the lysosome; assay: Immunofluorescence of mTOR and LAMP1 colocalisation in serum-starved transfected CHO cells; conditions: medium lacking FBS for 16 h
# Description: (§1) 24 h after transfection cells were transferred to medium lacking FBS for 16 hours. Cells were fixed with 4% paraformaldehyde, permeabilized with 0.05% Triton X-100, blocked with 10% normal donkey serum before LAMP1 and then anti-mTOR antibodies were applied overnight. Alexa Fluor™ 488 and 594-labelled secondary antibodies were applied before cells were mounted and stained with DAPI.
# as §1, with “h.” for “hours.”, “mTOR” for “then anti-mTOR”, “594” for “594-labelled”
# mTORC1 signalling = mTORC1 signalling (Western blot, S6K1 and rpS6) in transfected CHO cells starved of serum and amino acids, with or without TSC1/2 co-transfection
# Description: GTP. GST-Rheb bound to GDP or GTP was pulled down using glutathione beads and the nucleotides were then separated by thin-layer chromatography and visualized by phosphorimager. The positions of GDP and GTP are shown (FIG. 1A). […] FIGS. 1C-1D: CHO cells were co-transfected using Lipofectamine 3000 with vectors encoding wildtype (WT) Rheb or the indicated mutants and TSC1/2 as indicated. 36 h after transfection, cells were transferred to Ham's F12 media lacking FBS for 16 h. Cells were the transferred to Dulbecco's phosphate-buffered saline (D-PBS, which lacks amino acids) for 1 h before cell lysates were harvested for SDS-PAGE and Western Blotting analysis using the indicated antibodies.
# [3] = system: CHO cells stably expressing Firefly luciferase (FLuc); assay: Firefly luciferase assay in CHO cells stably expressing FLuc transfected with Rheb vectors; conditions: day 7, normalised to cell number
# Description: CHO cells stably expressing Firefly luciferase (FLuc) or Gaussia luciferase (GLuc) as indicated were transfected using Lipofectamine3000 with an empty vector (EV) or vectors for Rheb WT, S21L, T23M, G29S, Y35N or E40K and also treated with the mTOR inhibitor AZD8055 at 100 nM for the total duration where indicated. Fluc and GLuc assays were performed 24 h after transfection and then every 48 h for 7 days. Assay results are normalised to cell number. GLuc-CHO cells were harvested for SDS-PAGE and Western Blot analysis at the 168 h (7-day) time-point to probe for intracellular GLuc, FLAG (Rheb) and actin, as ‘loading control’. […] In (E), secreted GLuc was monitored every 4 h from 24 h to 60 h showing the rate of secretion of GLuc was higher when Rheb-T23M is expressed as compared to Rheb-Y35N. The pattern for intracellular levels of Gaussia luciferase (assessed by immunoblot of cell lysates harvested at 7 days post transfection) more closely resemble those intracellular firefly luciferase (F) with little change compared to either the empty vector or WT while still retaining heightened mTORC1 signalling as indicated by the elevated levels of P-S6K1 Thr389 compared to cells transfected with the empty vector. […]
substance,measurement,setting,value
"Rheb-T23M: human Rheb protein with a methionine variant at residue 23 (T23M), SEQ ID NO. 3",cell growth in serum-free medium,CHO cells; 0% FBS,allows CHO cells to grow efficiently in serum-free medium
same,cell growth in 0.5% FBS,CHO cells; 0.5% FBS,significant growth advantage over the other Rheb mutants; also recorded: substantially greater proliferation
same,cell growth in medium with 10% and 1% FBS,CHO cells; 10% or 1% FBS,no effect on cell growth
same,increase in secreted Gaussia luciferase,"[1]; day 7, normalised to cell number",3 fold
same,rate of secretion of GLuc,"[1]; monitored every 4 h from 24 h to 60 h, compared to Rheb-Y35N",higher
same,mTOR localisation to the lysosome (overlap with LAMP1),[2],promote localisation; also recorded: strong mTOR localisation on lysosomes
same,mTORC1 signalling in the absence of upstream activation,"mTORC1 signalling; no serum 16 h, D-PBS 1 h, compared to empty vector and Rheb-WT",increased mTORC1 signalling over both the empty vector and Rheb-WT
same,mTORC1 signalling when co-transfected with TSC1/TSC2,"mTORC1 signalling; no serum and amino acids, co-transfected with TSC1/TSC2",no reduction
same,increase in synthesis of intracellular Firefly luciferase compared to the empty vector,[3],ca. 1.2 fold
